Assay results as given in patent publication US8512708B2, “GP96 derived peptides” (Compugen Ltd., priority 2008, dated 2013).

Key:
A549 cells = format: cell-based, human; settings: 48 hours, MTT, 0.3-90 μg/ml peptide
Procedure: (§1) A549 cells were seeded at 6000 cells/well in 200 μA of media (DMEM medium+5% FBS) in a 96 well plate and incubated over-night (O.N). Cells were starved in 100 μl of serum free medium (SFM) containing 0.1% FBS, O.N. All lyophilized peptides were dissolved in H2O (prewarmed to 50° C.) and hand-stirred, giving a final concentration of 1 mg/ml. Reconstituted peptides were added in concentrations of 0.3, 1, 3, 10, 30 or 90 μg/ml and the cells were incubated for 48 hours.
(§2) Cell proliferation was measured using MTT assay as follows: 20 μl of MTT solution ((3-[4,5-Dimethyl-2-thiazolyl]-2,5-diphenyl-2H-tetrazolium bromide, Sigma Cat#M5655, lot#085k5322, 1 gr was dissolved in 200 ml H2O and filtered, giving a final concentration of 5 mg/ml) were added to each well for 4 hrs, after which the medium was vacuumed and 100 μl of DMSO were added to each well. Absorbance was measured in an ELISA reader at 492 nm. The results are shown in FIG. 8, and depicted in percent relative to untreated cells (which was defined as 100).

THP-1 cells = experiment: LPS-induced TNF-α secretion from THP-1 cells (ELISA); format: cell-based, human; settings: LPS 100 ng/ml, 4 hours
Procedure: THP-1 cells were seeded at 2×10^5 cells/ml in 100 μl of media (RPMI-1640 medium+10% FBS) in a 96 well plates. The reconstituted peptide at final concentrations of 20, 60, 180, 540, 1620, 4860 or 14580 nM were added to the relevant wells in a volume of 100 μl and LPS at a final concentration of 100 ng/ml (Sigma, Cat # L-6529, Lot #054K4022, stock concentration of 1 mg/ml) was added to the wells in a volume of 100 μl. Plates were incubated for 4 hours and then centrifuged 5 minutes at 4000 rpm. Conditioned medium (200 μl) was transferred to new plates and kept at −20° C. The concentration of TNF-α was measured using TNF-α ELISA (R&D Systems, Human TNF-alpha Quantikine ELISA Kit, Cat # STA00C).
THP-1 cells were seeded at 2×10^5 cells/ml in 100 μl of media (RPMI-1640 medium+10% FBS) in 96 well plates. The reconstituted peptide at final concentrations of 0.3, 1, 10, 30 or 60 μg/ml were added to the relevant wells in a volume of 100 μl and LPS at a final concentration of 100 ng/ml (Sigma, Cat # L-6529, Lot #054K4022, stock concentration of 1 mg/ml) was added to the wells in a volume of 100 Plates were incubated for 4 hours and then centrifuged 5 minutes at 4000 rpm. Conditioned medium (200 μl) was transferred to new plates and kept at −20° C. The concentration of TNF-α was measured using TNF-α ELISA (R&D Systems, Human TNF-alpha Quantikine ELISA Kit, Cat # STA00C).

HCT116 = experiment: Proliferation of HCT116 cells (MTT assay); format: cell-based, human; settings: HCT116, 48 hours, 0.003-60 μg/ml peptide
Procedure: as §1, with “Cells” for “A549 cells”, “5000” for “6000”, “μl” for “μA”, “0.003, 0.009, 0.028, 0.084, 0.25, 0.76, 2.28, 6.66, 20 and 60” for “0.3, 1, 3, 10, 30 or 90”
as §2, with “assay:” for “assay as follows:”, “nm.” for “nm. The results are shown in FIG. 8, and depicted in percent relative to untreated cells (which was defined as 100).”

SW480 = experiment: Proliferation of SW480 cells (MTT assay); format: cell-based, human; settings: SW480, 48 hours, 0.003-60 μg/ml peptide
Procedure: as §1, with “Cells” for “A549 cells”, “5000” for “6000”, “μl” for “μA”, “0.003, 0.009, 0.028, 0.084, 0.25, 0.76, 2.28, 6.66, 20 and 60” for “0.3, 1, 3, 10, 30 or 90”
as §2, with “assay:” for “assay as follows:”, “nm.” for “nm. The results are shown in FIG. 8, and depicted in percent relative to untreated cells (which was defined as 100).”

HT29 = experiment: Proliferation of HT29 cells (MTT assay); format: cell-based, human; settings: HT29, 48 hours, 0.003-60 μg/ml peptide
Procedure: as §1, with “Cells” for “A549 cells”, “5000” for “6000”, “μl” for “μA”, “0.003, 0.009, 0.028, 0.084, 0.25, 0.76, 2.28, 6.66, 20 and 60” for “0.3, 1, 3, 10, 30 or 90”
as §2, with “assay:” for “assay as follows:”, “nm.” for “nm. The results are shown in FIG. 8, and depicted in percent relative to untreated cells (which was defined as 100).”

MCF7 = experiment: Proliferation of MCF7 cells (MTT assay); format: cell-based, human; settings: MCF7, 48 hours, 0.003-60 μg/ml peptide
Procedure: as §1, with “Cells” for “A549 cells”, “5000” for “6000”, “μl” for “μA”, “0.003, 0.009, 0.028, 0.084, 0.25, 0.76, 2.28, 6.66, 20 and 60” for “0.3, 1, 3, 10, 30 or 90”
as §2, with “assay:” for “assay as follows:”, “nm.” for “nm. The results are shown in FIG. 8, and depicted in percent relative to untreated cells (which was defined as 100).”

human PBMCs = experiment: Anti-CD3-induced cytokine release from human PBMCs (Luminex); format: cell-based; settings: PBMCs treated with anti-CD3 antibody (1 μg/ml), 48 hours; peptide 30 μg/ml=6 μM (FIG. 2)
Procedure: Peptides were assayed at two concentrations (3 and 30 ug/mL) in duplicates. Cryopreserved PBMCs were drip-thaw and seeded at 1×10^4 cells/well in 140 μl of media per well. Cells were incubated for 1 hour at 37° C. at 5% CO2 and a peptide of the invention or Dexamethasone as a control, were added in 20 μl of medium. Cells were incubated for 30 minutes and anti-CD3 antibody (1 μg/ml) was added at the appropriate concentration in 40 μl of medium. Plates were incubated for 48 hours, spinned at 1200 rpm for 10 minutes and supernatants were collected and stored at −80° C. Cytokines' concentration was measured using a Luminex analyzer (IS100, Luminex Corporation) and bead-based reagents (Upstate Biotechnology).

Row | Compound | inhibition of proliferation, dose dependence (A549 cells) | inhibition of LPS-induced TNF-α secretion (THP-1 cells; 30 μg/ml peptide) | inhibition of LPS-induced TNF-α secretion (THP-1 cells; 10 μg/ml peptide) | inhibition of proliferation, dose dependence (HCT116) | inhibition of proliferation, dose dependence (SW480) | inhibition of proliferation, dose dependence (HT29) | inhibition of proliferation, dose dependence (MCF7) | decrease of IL-1α (human PBMCs) | decrease of IL-1β (human PBMCs) | decrease of IL-2 release (human PBMCs) | decrease of IL-12p40 (human PBMCs) | decrease of IL-12p70 (human PBMCs) | decrease of TNFα (human PBMCs) | inhibition of GM-CSF release (human PBMCs)
1 | CC[C@H](C)[C@H](NC(=O)[C@H](CCCCN)NC(=O)[C@H](CCCCN)NC(=O)[C@@H](NC(=O)[C@H](CCSC)NC(=O)[C@H](CC(=O)O)NC(=O)[C@H](CC(C)C)NC(=O)[C@@H](NC(=O)[C@H](CCCCN)NC(=O)[C@H](CCCNC(=N)N)NC(=O)[C@@H](NC(=O)[C@H](CC(C)C)NC(=O)[C@H](CCCCN)NC(=O)[C@H](CCCCN)NC(=O)[C@H](CCCNC(=N)N)NC(=O)[C@@H](NC(=O)[C@@H](NC(=O)[C@H](CCCCN)NC(=O)[C@H](CC(C)C)NC(=O)[C@H](CC(C)C)NC(=O)[C@H](CCCCN)NC(=O)[C@H](Cc1c[nH]cn1)NC(=O)[C@H](CCC(N)=O)NC(=O)[C@H](CCC(N)=O)NC(=O)[C@H](CC(C)C)NC(=O)[C@@H](NC(C)=O)[C@@H](C)O)C(C)C)[C@@H](C)CC)C(C)C)[C@@H](C)O)[C@@H](C)CC)C(=O)N[C@@H](C)C(=O)N[C@@H](CC(=O)O)C(=O)N[C@@H](CC(=O)O)C(=O)N[C@@H](CCCCN)C(=O)N[C@@H](Cc1ccc(O)cc1)C(N)=O [CGEN-GP4] | dose-dependent | 100% |  |  |  |  |  |  |  |  |  |  |  | 
2 | Ac-HKLLKVIRKKLVRKTLDMIKKIADDKYNDTFWKEF-NH2 [CGEN-GP5] | dose-dependent |  | 100% | dose-dependent | dose-dependent | dose-dependent | dose-dependent |  |  |  |  |  |  | 
3 | IYVWSSKTETVEEPMEEEEAAKEEKEESDDEA (Ac-IYVWSSKTETVEEPMEEEEAAKEEKEESDDEA-NH2) [CGEN-GP3] |  |  |  |  |  |  |  | 30% | 60% | 70% | 40% | 70% | approximately 30% | no effect
